Data reported in US5739294A, “Bicyclopol yazamacrocyclophosphonic acid complexes for use as contrast agents” (priority 1994, dated 1998).

Assays:
[1] = biodistribution, percent of injected dose in tissues of rats; assay type: in vivo, Sprague Dawley rats; conditions: rat, tail vein; for % injected dose, Blood: blood assumed 7% of body weight; for % injected dose, Muscle: muscle assumed 43% of body weight; for % injected dose, Bone: percent dose in femur × 25
Description: Sprague Dawley rats were allowed to acclimate for five days then injected with 100 μL of the complex solution via a tail vein. The rats weighed between 150 and 200 g at the time of injection. […] The amount of radioactivity in each tissue was determined by counting in a NaI scintillation counter coupled to a multichannel analyzer. The counts were compared to the counts in 100 μL standards in order to determine the percentage of the dose in each tissue or organ.
The percent dose in blood was estimated assuming blood to be 7% of the body weight. The percent dose in bone was estimated by multiplying the percent dose in the femur by 25. The percent dose in muscle was estimated assuming muscle to be 43% of the body weight. […]

[2] = percent metal as a complex (Sephadex column, ^153 Sm tracer); assay type: physicochemical; conditions: 1:1 ligand/metal, SmCl3 3×10^-4 M in 0.01N HCl
Description: A stock ^159 GdCl3 (or ^153 SmCl3) solution was prepared by adding 2 μL of 3×10^-4 M ^159 GdCl3 in 0.1N HCl to 2 mL of a 3×10^-4 M GdCl3 carrier solution. Appropriate ligand solutions were then prepared in deionized water. The 1:1 ligand/metal complexes were then prepared by combining the ligands (dissolved in 100-500 μL of deionized water) with 2 mL of the stock ^159 GdCl3 solution, followed by through mixing to give an acidic solution (pH=2). The pH of the solution was then raised to 7.0 using 0.1N NaOH. The percent metal as a complex was then determined by passing a sample of the complex solution through a Sephadex™ G-50 column, eluting with 4:1 saline ([…]) and collecting 2×3 mL fractions. The amount of radioactivity in the combined elutions was then compared with that left on the resin (non-complexed metal is retained on the resin). […]
A solution of the ligand of Example 1 was prepared by dissolving 3.8 mg of ligand/0.517 mL of deionized water (pH=2). […] After thorough mixing, the percent metal as a complex was determined by passing a sample of the complex solution through a Sephadex™ column, eluting with 4:1 saline (0.85% NaCl/NH4 OH), and collecting 2×3 mL fractions. The amount of radioactivity in the combined elutions was then compared with that left on the resin. […] By this method complexation was determined to be 98%. […]

[3] = in vivo; cited from earlier work
[4] = compared with Magnevist; cited from earlier work
[5] = MRI imaging experiments in rats; assay type: in vivo, Sprague Dawley rat; conditions: rat, intramuscular, 0.05-0.1 mmol Gd/kg
Description: Injectable solutions were first prepared (0.5M) by dissolving the appropriate amount of each complex in 2 mL of deionized water. The pH of the solutions were then adjusted to 7.4 using 1M HCl or NaOH as needed. The total Gd content of each solution was then determined by ICP analysis.
An anesthetized Sprague Dawley rat was injected intramuscularly with one of the metal solutions described above at a dose of 0.05-0.1 mmol Gd/kg body weight. Images were then taken at various time intervals and compared with a non-injected control at time 0.

Compound | % injected dose, Brain ([1]; 2 hours post injection) [%] | % injected dose, Heart ([1]; 2 hours post injection) [%] | % injected dose, Kidney ([1]; 2 hours post injection) [%] | % injected dose, Large Intestine ([1]; 2 hours post injection) [%] | % injected dose, Liver ([1]; 2 hours post injection) [%] | % injected dose, Lung ([1]; 2 hours post injection) [%] | % injected dose, Small Intestine ([1]; 2 hours post injection) [%] | % injected dose, Spleen ([1]; 2 hours post injection) [%] | % injected dose, Stomach ([1]; 2 hours post injection) [%] | % injected dose, Blood ([1]; 2 hours post injection) [%] | % injected dose, Muscle ([1]; 2 hours post injection) [%] | % injected dose, Bone ([1]; 2 hours post injection) [%] | also measured
^153 Sm-3,6,9,15-tetraazabicyclo[9.3.1]pentadeca-1(15),11,13-triene-3,6,9-trimethylenephosphonic acid [^153 Sm-PCTMP] | – | – | – | – | – | – | – | – | – | – | – | – | % injected dose, Kidney ([1]; 30 min (general procedure)): 1.42%; % injected dose, Liver ([1]; 30 min (general procedure)): 0.99%; % injected dose, Spleen ([1]; 30 min (general procedure)): 0.07%; % injected dose, Blood ([1]; 30 min (general procedure)): 6.27%; % injected dose, Muscle ([1]; 30 min (general procedure)): 4.77%; % injected dose, Bone ([1]; 30 min (general procedure)): 34.87%; complexation (percent metal as a complex) [2]: 98%
O=C(O)CN1CCN(CP(=O)(O)O)CCN(CC(=O)O)Cc2cccc(n2)C1.[153Sm] [^153 Sm-PC2A1P] | 0.01 | 0.04 | 0.93 | 0.12 | 1.46 | 0.06 | 13.10 | 0.02 | 0.25 | 0.36 | 1.00 | 47.98 | –
CC(O)CN1CCN(CC(=O)[O-])CCN(CC(=O)[O-])CCN(CC(=O)[O-])CC1.[Gd+3] (centres unmarked) [PROHANCE, [1,4,7-tris(carboxymethyl)-10-(2-hydroxypropyl)-1,4,7,10-tetraazacyclododecanato]-gadolinium] | – | – | – | – | – | – | – | – | – | – | – | – | distribution [3]: freely distributes in extracellular fluid; elimination [3]: efficient elimination through the renal system; side effects [4]: fewer side effects than Magnevist
CCCCOP(=O)([O-])CN1CCN(CP(=O)([O-])OCCCC)Cc2cccc(n2)CN(CP(=O)([O-])OCCCC)CC1.[153Sm+3] [^153 Sm-PMBHE] | 0.00 | 0.02 | 0.43 | 0.77 | 2.70 | 0.04 | 57.89 | 0.05 | 0.08 | 0.14 | 1.09 | 3.73 | –
CCCOP(=O)([O-])CN1CCN(CP(=O)([O-])OCCC)Cc2cccc(n2)CN(CP(=O)([O-])OCCC)CC1.[153Sm+3] [^153 Sm-PMPHE] | 0.00 | 0.08 | 1.55 | 2.17 | 4.14 | 0.12 | 10.71 | 0.05 | 0.44 | 0.25 | 1.19 | 10.86 | –
CNC[C@H](O)[C@@H](O)[C@H](O)[C@H](O)CO.CNC[C@H](O)[C@@H](O)[C@H](O)[C@H](O)CO.O=C([O-])CN(CCN(CC(=O)[O-])CC(=O)O)CCN(CC(=O)[O-])CC(=O)O.[Gd+3] [MAGNEVIST, complex of gadolinium with diethylenetriaminepentaacetic acid] | – | – | – | – | – | – | – | – | – | – | – | – | distribution [3]: freely distributes in extracellular fluid; elimination [3]: efficient elimination through the renal system
O=P(O)(O)CN1CCN(CP(=O)(O)O)Cc2cccc(n2)CN(CP(=O)(O)O)CC1.[Gd] [Gd-PCTMP] | – | – | – | – | – | – | – | – | – | – | – | – | MR image enhancement, kidney [5]: kidney enhancement; bone localization in MR image [5]: bone localization in the shoulder, spine and sternum
